The NIST ThermoML archive (doi:10.1016/j.fluid.2014.11.020)
± gives the expanded uncertainty stated by the source.

Experiment: activity coefficient (dimensionless); of the first substance listed, at infinite dilution; xn = mol fraction of the nth substance listed
Conditions: Liquid, Chromatography, x1 = 0

Compound | activity coefficient (323.15 K) | activity coefficient (333.15 K) | activity coefficient (343.15 K)
ClCCl [dichloromethane] + CCCCCCCCn1cc[n+](COCCC)c1C.N#C[N-]C#N | 0.34 ± 0.03 | 0.37 ± 0.03 | 0.37 ± 0.03
CCCCCCCCCCCC [dodecane] + CCCOC[n+]1ccn(Cc2ccccc2)c1.F[B-](F)(F)F | 483 ± 33 | 421 ± 29 | 370 ± 25
C1COCCO1 [1,4-dioxane] + CCCOC[n+]1ccn(C)c1.O=S(=O)([N-]S(=O)(=O)C(F)(F)F)C(F)(F)F | 0.57 ± 0.04 | 0.57 ± 0.04 | 0.58 ± 0.04
Cc1ccc(C)cc1 [1,4-dimethylbenzene] + CCCCCCCCn1cc[n+](COCCC)c1C.O=S(=O)([N-]S(=O)(=O)C(F)(F)F)C(F)(F)F | 1.02 ± 0.06 | 1.01 ± 0.06 | 1 ± 0.06
CCCCCCCCC [nonane] + N#C[N-]C#N.N#C[N-]C#N.c1ccc(Cn2cc[n+](COCCCOC[n+]3ccn(Cc4ccccc4)c3)c2)cc1 | 335 ± 23 | 264 ± 18 | 226 ± 16
C1CCCCCC1 [cycloheptane] + N#C[N-]C#N.N#C[N-]C#N.c1ccc(Cn2cc[n+](COCCCOC[n+]3ccn(Cc4ccccc4)c3)c2)cc1 | 117 ± 8 | 139 ± 9.6 | 171 ± 12
CCCC(C)=O [pentan-2-one] + CN(C)c1cc[n+](COCCCOC[n+]2ccc(N(C)C)cc2)cc1.O=S(=O)([N-]S(=O)(=O)C(F)(F)F)C(F)(F)F.O=S(=O)([N-]S(=O)(=O)C(F)(F)F)C(F)(F)F | 0.69 ± 0.05 | 0.7 ± 0.05 | 0.71 ± 0.05
CO [methanol] + CCCOC[n+]1ccc(N(C)C)cc1.O=S(=O)([N-]S(=O)(=O)C(F)(F)F)C(F)(F)F | 1.28 ± 0.08 | 1.23 ± 0.08 | 1.16 ± 0.07
CC(C)O [propan-2-ol] + Cn1cc[n+](COCCCOC[n+]2ccn(C)c2)c1.O=S(=O)([N-]S(=O)(=O)C(F)(F)F)C(F)(F)F.O=S(=O)([N-]S(=O)(=O)C(F)(F)F)C(F)(F)F | 1.31 ± 0.09 | 1.22 ± 0.08 | 1.05 ± 0.07
CCCCO [butan-1-ol] + CCCCCCCCn1cc[n+](COCCCOC[n+]2ccn(CCCCCCCC)c2C)c1C.N#C[N-]C#N.N#C[N-]C#N | 7.49 ± 0.51 | 5.96 ± 0.41 | 4.81 ± 0.33
CCCCCCCC [octane] + CCCOC[n+]1ccc(N(C)C)cc1.O=S(=O)([N-]S(=O)(=O)C(F)(F)F)C(F)(F)F | 22.2 ± 1.5 | 20.5 ± 1.4 | 17.7 ± 1.2
CC(C)OC(C)C [diisopropyl ether] + CCCOC[n+]1ccc(N(C)C)cc1.O=S(=O)([N-]S(=O)(=O)C(F)(F)F)C(F)(F)F | 4.49 ± 0.31 | 4.54 ± 0.31 | 4.12 ± 0.28
CCC(C)CC [3-methylpentane] + CCCCCCCCn1cc[n+](COCCCOC[n+]2ccn(CCCCCCCC)c2C)c1C.O=S(=O)([N-]S(=O)(=O)C(F)(F)F)C(F)(F)F.O=S(=O)([N-]S(=O)(=O)C(F)(F)F)C(F)(F)F | 3.59 ± 0.24 | 3.36 ± 0.23 | 3.13 ± 0.21
C#CCCCC [1-hexyne] + CCCCCCCCn1cc[n+](COCCCOC[n+]2ccn(CCCCCCCC)c2C)c1C.N#C[N-]C#N.N#C[N-]C#N | 1.72 ± 0.12 | 1.68 ± 0.11 | 1.63 ± 0.11
c1ccccc1 [benzene] + CCCOC[n+]1ccn(C)c1.F[B-](F)(F)F | 3.51 ± 0.24 | 3.45 ± 0.23 | 3.46 ± 0.24
C1COCCO1 [1,4-dioxane] + CN(C)c1cc[n+](COCCCOC[n+]2ccc(N(C)C)cc2)cc1.O=S(=O)([N-]S(=O)(=O)C(F)(F)F)C(F)(F)F.O=S(=O)([N-]S(=O)(=O)C(F)(F)F)C(F)(F)F | 0.44 ± 0.04 | 0.45 ± 0.04 | 0.45 ± 0.04
C#CCCCCC [1-heptyne] + CCCOC[n+]1ccn(Cc2ccccc2)c1.N#C[N-]C#N | 6.34 ± 0.43 | 6.08 ± 0.41 | 
CCC(C)=O [butanone] + CCCCCCCCn1cc[n+](COCCCOC[n+]2ccn(CCCCCCCC)c2C)c1C.N#C[N-]C#N.N#C[N-]C#N | 0.56 ± 0.04 | 0.5 ± 0.04 | 0.46 ± 0.04
CCc1ccccc1 [ethylbenzene] + N#C[N-]C#N.N#C[N-]C#N.c1ccc(Cn2cc[n+](COCCCOC[n+]3ccn(Cc4ccccc4)c3)c2)cc1 | 8.33 ± 0.57 | 8.08 ± 0.55 | 7.78 ± 0.53
ClC(Cl)Cl [trichloromethane] + Cn1cc[n+](COCCCOC[n+]2ccn(C)c2)c1.N#C[N-]C#N.N#C[N-]C#N | 1.02 ± 0.06 | 1.08 ± 0.07 | 1.14 ± 0.07
CCCCCCCCCCCC [dodecane] + CCCCCCCCn1cc[n+](COCCCOC[n+]2ccn(CCCCCCCC)c2C)c1C.N#C[N-]C#N.N#C[N-]C#N | 28.7 ± 2 | 30.6 ± 2.1 | 27.9 ± 1.9
CO [methanol] + CCCOC[n+]1ccn(Cc2ccccc2)c1.N#C[N-]C#N | 0.39 ± 0.03 | 0.4 ± 0.03 | 0.4 ± 0.03
C#CCCCC [1-hexyne] + CCCOC[n+]1ccn(Cc2ccccc2)c1.F[B-](F)(F)F | 5.61 ± 0.38 | 5.52 ± 0.38 | 5.42 ± 0.37

Compound | activity coefficient (323.15 K) | activity coefficient (333.15 K) | activity coefficient (343.15 K)
ClC(Cl)Cl [trichloromethane] + CCCOC[n+]1ccn(Cc2ccccc2)c1.N#C[N-]C#N | 0.62 ± 0.04 | 0.65 ± 0.04 | 0.69 ± 0.05
c1ccccc1 [benzene] + CCCCCCCCn1cc[n+](COCCC)c1C.O=S(=O)([N-]S(=O)(=O)C(F)(F)F)C(F)(F)F | 0.6 ± 0.04 | 0.59 ± 0.04 | 0.59 ± 0.04
C1COCCO1 [1,4-dioxane] + CCCCCCCCn1cc[n+](COCCC)c1C.N#C[N-]C#N | 0.77 ± 0.05 | 0.78 ± 0.05 | 0.78 ± 0.05
CC(C)CO [2-methyl-1-propanol] + CCCOC[n+]1ccn(Cc2ccccc2)c1.N#C[N-]C#N | 0.9 ± 0.06 | 0.86 ± 0.06 | 
CCO [ethanol] + CCCOC[n+]1ccn(Cc2ccccc2)c1.F[B-](F)(F)F | 1.65 ± 0.11 | 1.49 ± 0.1 | 1.38 ± 0.09
Cc1ccccc1C [1,2-dimethylbenzene] + CCCOC[n+]1ccn(C)c1.N#C[N-]C#N | 5.05 ± 0.34 | 5.13 ± 0.35 | 5.22 ± 0.36
CCC[N+](=O)[O-] [1-nitropropane] + CCCCCCCCn1cc[n+](COCCC)c1C.O=S(=O)([N-]S(=O)(=O)C(F)(F)F)C(F)(F)F | 0.54 ± 0.04 | 0.53 ± 0.04 | 0.53 ± 0.04
C#CCCCC [1-hexyne] + N#C[N-]C#N.N#C[N-]C#N.c1ccc(Cn2cc[n+](COCCCOC[n+]3ccn(Cc4ccccc4)c3)c2)cc1 | 14.1 ± 0.96 | 11.7 ± 0.8 | 
C1COCCO1 [1,4-dioxane] + CCCOC[n+]1ccc(N(C)C)cc1.O=S(=O)([N-]S(=O)(=O)C(F)(F)F)C(F)(F)F | 0.56 ± 0.04 | 0.59 ± 0.04 | 0.59 ± 0.04
C1CCCCCC1 [cycloheptane] + Cn1cc[n+](COCCCOC[n+]2ccn(C)c2)c1.O=S(=O)([N-]S(=O)(=O)C(F)(F)F)C(F)(F)F.O=S(=O)([N-]S(=O)(=O)C(F)(F)F)C(F)(F)F | 41.5 ± 2.8 | 51.9 ± 3.5 | 63.5 ± 4.3
Cc1ccccc1C [1,2-dimethylbenzene] + CCCOC[n+]1ccn(C)c1.O=S(=O)([N-]S(=O)(=O)C(F)(F)F)C(F)(F)F | 2.3 ± 0.16 | 2.28 ± 0.16 | 2.29 ± 0.16
C1CCCCC1 [cyclohexane] + CCCOC[n+]1ccn(C)c1.F[B-](F)(F)F | 46.7 ± 3.2 | 40.6 ± 2.8 | 36.4 ± 2.5
CCCC(C)=O [pentan-2-one] + CCCCCCCCn1cc[n+](COCCC)c1C.N#C[N-]C#N | 0.95 ± 0.06 | 0.96 ± 0.06 | 0.98 ± 0.06
Cc1ccc(C)cc1 [1,4-dimethylbenzene] + CCCCCCCCn1cc[n+](COCCC)c1C.N#C[N-]C#N | 1.51 ± 0.1 | 1.52 ± 0.1 | 1.56 ± 0.1
C1CCCCCC1 [cycloheptane] + CCCOC[n+]1ccn(Cc2ccccc2)c1.O=S(=O)([N-]S(=O)(=O)C(F)(F)F)C(F)(F)F | 13.4 ± 0.91 | 15.8 ± 1.1 | 20.5 ± 1.4
CCC[N+](=O)[O-] [1-nitropropane] + CCCCCCCCn1cc[n+](COCCCOC[n+]2ccn(CCCCCCCC)c2C)c1C.O=S(=O)([N-]S(=O)(=O)C(F)(F)F)C(F)(F)F.O=S(=O)([N-]S(=O)(=O)C(F)(F)F)C(F)(F)F | 0.34 ± 0.03 | 0.33 ± 0.03 | 0.32 ± 0.03
CCCCCCCC [octane] + CCCOC[n+]1ccn(C)c1.F[B-](F)(F)F | 292 ± 20 | 213 ± 15 | 182 ± 13
CCC[N+](=O)[O-] [1-nitropropane] + CCCOC[n+]1ccn(C)c1.N#C[N-]C#N | 1.36 ± 0.09 | 1.37 ± 0.09 | 1.39 ± 0.09
CCCCCCCCC [nonane] + CCCOC[n+]1ccc(N(C)C)cc1.O=S(=O)([N-]S(=O)(=O)C(F)(F)F)C(F)(F)F | 32.8 ± 2.2 | 30.6 ± 2.1 | 27.1 ± 1.9
Cc1ccc(C)cc1 [1,4-dimethylbenzene] + Cn1cc[n+](COCCCOC[n+]2ccn(C)c2)c1.N#C[N-]C#N.N#C[N-]C#N | 10.5 ± 0.72 | 10.2 ± 0.69 | 9.96 ± 0.68
CCCO [propan-1-ol] + CCCOC[n+]1ccn(Cc2ccccc2)c1.N#C[N-]C#N | 0.84 ± 0.05 | 0.7 ± 0.05 | 0.69 ± 0.05
CCCCCCCCC [nonane] + Cn1cc[n+](COCCCOC[n+]2ccn(C)c2)c1.O=S(=O)([N-]S(=O)(=O)C(F)(F)F)C(F)(F)F.O=S(=O)([N-]S(=O)(=O)C(F)(F)F)C(F)(F)F | 105 ± 7.2 | 96.7 ± 6.6 | 72.4 ± 5
